Earlier results as cited in US11116745B2, “Prebiotic formulation” (Deep Cell Industries, Inc., priority 2018, dated 2021).

Columns and labels:
cannabinoid CB2 receptor = cannabinoid CB2 receptor (Homo sapiens, UniProt P34972)
[1] = not given; remark: listed apart in the source
enteric glial cells = conditions: over active enteric glial cells

Chain of cannabinoid CB2 receptor (P34972 whole entry): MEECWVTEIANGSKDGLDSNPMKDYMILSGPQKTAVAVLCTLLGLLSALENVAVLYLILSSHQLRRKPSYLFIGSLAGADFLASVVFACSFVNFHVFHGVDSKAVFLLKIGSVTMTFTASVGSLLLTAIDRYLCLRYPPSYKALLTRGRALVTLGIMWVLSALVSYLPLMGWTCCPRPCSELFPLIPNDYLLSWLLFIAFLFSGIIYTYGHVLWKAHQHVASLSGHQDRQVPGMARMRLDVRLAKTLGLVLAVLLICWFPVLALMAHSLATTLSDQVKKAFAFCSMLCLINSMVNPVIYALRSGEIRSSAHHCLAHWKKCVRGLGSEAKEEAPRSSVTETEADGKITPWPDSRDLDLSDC

## C=C(C)[C@@H]1CCC(C)=C[C@H]1c1c(O)cc(CCCCC)cc1O [Cannabidiol]
Cannabinoid CB2 receptor
  affinity for the cannabinoid CB2 receptor: very low affinity
other
  oral bioavailability (absorption): 13-19%
[1]
  solubility: low
Enteric glial cells
  expression of S100B and iNOS proteins: reduce
